# Measured values reported in US20110256559A1, “Method for Detecting Soluble Amyloid Precursor Protein (APP) Alpha and/or Soluble APP Beta” (INSERM (Institut National de la Sante et de la Recherche …, priority 2008, published 2011).
# “Also recorded” adds a separate entry of the source.
# What was measured:
# sAPPα [1] = experiment: sAPPα HTRF assay in primary cortical neurons conditioned medium; assay type: cell-based, mouse; conditions: primary neurons from transgenic mice expressing wild type human APP (FIG. 8)
# Procedure: (§1) Four types of biological samples were investigated using the following procedure: human CSF, human blood serum, culture medium of neuroblastoma SH-SY5Y cell line treated with different drugs (for instance the PKC activator PdBu which stimulate the ADAM 17 alpha secretase activity), or conditioned culture medium from primary mouse cortical neurons.
# (§2) All samples and calibrator were treated with 10 mM DTT on ice, during 30 min. In a 384-well low volume (20 μl) white plate, reagents were distributed in the following order: • 5 μl 150 mM phosphate buffer pH 7.0, 0.2% BSA. • 5 μl sample or calibrator, treated with DTT and diluted. • 5 μl MAB348 antibody, cryptate conjugate, diluted 1/250 with 50 mM phosphate buffer pH 7.0, 0.4M KF. • 5 μl 2B3 antibody, D2 conjugate, diluted 1/250 with 50 mM phosphate buffer pH 7.0, 0.4M KF.
# Validation of the sAPPα HTRF Assay in Primary Cortical Neurons Conditioned Medium. (FIG. 8)
# sAPPα [2] = experiment: sAPPα HTRF assay in SH-SY5Y neuroblastoma cells conditioned medium; assay type: cell-based, human; conditions: for effect on PdBu-induced increase of sAPPα secretion: PKC activated by PdBu (FIG. 7)
# Procedure: as §1, §2
# The plate covered with a plate sealer was centrifuged (1000 g 1 min) and incubated overnight, at room temperature.
# The plate sealer was removed, and the plate read on a compatible HTRF reader (Envision, Perkin Elmer), at […].
# Results are calculated from 665 nm/620 nm ratio and expressed in delta F: […]
# Delta F is proportional to the sAPPα concentration; Delta F obtained for samples can be reported on the calibration curve to deduce respective sAPPα concentration.
# Different samples were submitted to the sAPPα HTRF assay with or without DTT treatment.
# Numerous studies have shown that the sAPPα secretion is regulated by some intracellular signalisation pathway involving PKC and that the α-secretase responsible for this secretion is a disintegrin-metalloproteinase (ADAM 17).
molecule,measurement,setting,value
O=C(O[C@@H]1Cc2c(O)cc(O)cc2O[C@@H]1c1cc(O)c(O)c(O)c1)c1cc(O)c(O)c(O)c1 [EGCG],effect on sAPP alpha in the medium,sAPPα [1],increase of sAPP alpha
CN(C)CCCn1cc(C2=C(c3c[nH]c4ccccc34)C(=O)NC2=O)c2ccccc21 [GF 109203],effect on PdBu-induced increase of sAPPα secretion,sAPPα [2]; SH-SY5Y conditioned medium,abolished
CCCC(=O)O[C@@H]1[C@@H](C)[C@@]2(O)[C@@H](C=C(CO)C[C@]3(O)C(=O)C(C)=C[C@@H]23)[C@@H]2C(C)(C)[C@]12OC(=O)CCC [PdBu],effect on amount of sAPPα / sAPPα secretion,"sAPPα [2]; SH-SY5Y conditioned medium, samples pre-treated with DTT (FIG. 7)",activates the production of sAPPα; also recorded: increased
same,"sAPP alpha, Without DTT","sAPPα [2]; conditioned medium of SH-SY5Y neuroblastoma cell line, no DTT pre-treatment, n=8",3.4 ± 0.4 ng/mL
same,"sAPP alpha, With DTT","sAPPα [2]; conditioned medium of SH-SY5Y neuroblastoma cell line, sample pre-treated with 10 mM DTT, n=8",59.1 ± 2.8 ng/mL
same,"sAPPα Mean, inter assay reproducibility","sAPPα [2]; conditioned medium, inter assay, 16 samples",61.4 ng/mL
same,"sAPPα Mean, intra assay reproducibility","sAPPα [2]; conditioned medium, intra assay, 8 samples",59.1 ng/mL
CC(C)C[C@H](CC(=O)NO)C(=O)N[C@@H](Cc1ccc2ccccc2c1)C(=O)N[C@@H](C)C(N)=O [TAPI 0],effect on PdBu-induced increase of sAPPα secretion,sAPPα [2]; SH-SY5Y conditioned medium,abolished
PACAP 1-27,effect on sAPP alpha in the medium,sAPPα [1],increase of sAPP alpha
